Data published in patent publication US20120295893A1, “COMPOSITIONS AND METHODS OF COUNTERACTING RESIDUAL SEDATIVE EFFECTS OF SLEEP/ HYPNOTIC DRUGS” (COERULEUS LTD., priority 2009, published 2012).
≈ marks a conversion by molar mass, not a printed value. Entries after “also recorded” stand apart in the source; their conditions may differ. Read-outs that look alike come from different tables or passages of the source.

Assays:
[1] = Passive transdermal paper feasibility (3M empirical model)
Experimental: The feasibility of transdermal delivery was evaluated for flumazenil and zolpidem. The target transdermal dose for flumazenil used in this assessment was 0.6 mg/hr.
This study addresses the feasibility of passively delivering a drug from a transdermal patch based on requirements specified for flumazenil and thereby provides evaluation of drug diffusion across the skin at a feasible rate. […] The assessment involves first qualitatively assessing the physicochemical properties and target transdermal dose of the drug by comparing them to the properties of an ideal passive transdermal drug.
This maximum limit is defined empirically by a 3M model, which can be used to estimate the largest flux and minimum patch size of the proposed drug product.
The target transdermal flux is calculated by dividing the target transdermal dose by the patch area. Using Fick's Law of Diffusion, the steady-state transdermal flux (μg/cm^2/hr) of a drug across the stratum corneum, j, is described by Equation 1: […]
where D is the diffusion coefficient of the drug in the stratum corneum (cm^2/hr), 1 is the thickness of the stratum corneum, P is the permeability coefficient (cm/hr), and Δc is the drug's concentration gradient across the stratum corneum (μg/mL), which is commonly approximated in the literature, under infinite sink conditions, by the drug's solubility in octanol (coct).
The target drug flux is estimated by dividing the target daily transdermal dose (mg/day) by the target patch size (cm^2). If the target patch size is not defined, then a value of 40 cm^2 is used. Then, using equation (1), the target permeability coefficient can be estimated by dividing the target drug flux by the drug's solubility in octanol.

[2] = Gel electrophoresis migration in agarose gel; assay type: physicochemical; conditions: pH 4.5 compared with pH 5.5 and 7.2; 0.66 mg/ml, 1% gel, positive electrode
Experimental: The following parameters were applied in order to evaluate migration in agarose gel (1%; 3 mm thick):
Total Width: 15.5 cm; Length: 15 cm; No of Lanes: 4; No of sections: 10; Buffer solution used: TAE (Tris […], Acetic acid, EDTA); Well vol: 10 ul/well; Voltage used: 50V-100V DC; and Run Time: 1 hr.
1. 0.66 mg/ml flumazenil pH 4.5—Positive Electrode 2. 0.66 mg/ml flumazenil pH 5.5—Positive Electrode 3. 0.66 mg/ml flumazenil in tween80 pH 7.2—Positive Electrode

[3] = cited from earlier work
[4] = cited from earlier work; remark: listed apart in the source
[5] = system: sleep/hypnotic effect of zolpidem or brotizolam; test: Clinical study: immediate Word Recall Test (iWRT)
[6] = Clinical study: vital signs and safety assessments
[7] = system: sleep/hypnotic effect of zolpidem or brotizolam; test: Clinical study: digit symbol substitution test (DSST)
[8] = system: sleep/hypnotic effect of zolpidem or brotizolam; test: Clinical study: Profile Of Mood States (POMS) Brief form
[9] = system: sleep/hypnotic effect of zolpidem or brotizolam; test: Clinical study: overall response in performance tasks, flumazenil versus placebo
[10] = system: sleep/hypnotic effect of zolpidem or brotizolam; test: Clinical study: Visual Analogue Scale (sleepiness/vigilance, ability to focus, effectiveness)
[11] = high dose FLUMUP 1.6 mg, 10 participants
[12] = N = 20, sublingual 0.4 mg or 1.6 mg, change from post-hypnotic baseline

CCOC(=O)c1ncn2c1CN(C)C(=O)c1cc(F)ccc1-2 [Flumazenil, ethyl 8-fluoro-5,6-dihydro-5-methyl-6-oxo-4H-imidazo[1,5-a] [1,4]benzodiazepine-3-carboxylate]
log P vs. Ideal transdermal drug (1 to 3) [1]: + | Ionization vs. Ideal transdermal drug (Neutral) ([1]; Table 20A): + | Ionization vs. Ideal transdermal drug (Neutral) ([1]; Table 21): + | migration in agarose gel [2]: most efficient | pKa ([3]; SciFinderScholar): 1.14±0.2 | Ionization ([3]; Table 20A): Neutral | log P ([3]; Table 20A): 1 | Ionization ([3]; Table 21): Neutral | solubility (in words) [3]: sparingly soluble | solubility in Propylene glycol, PEG 300 and PEG 400 [3]: ~23 mM (≈ 6980 µg/mL) | solubility in pure ethanol ([3]; maximum): ~33 mM (≈ 10000 µg/mL) | pKa ([3]; product information): 1.78 | effective plasma level ([4]; for IV 0.2 mg): 5 to 20 ng/mL | time to peak plasma level ([4]; from the oral administration): 20 to 90 min | plasma half life time ([4]; in vivo): 7 to 15 min | protein binding ([4]; in vivo): 40% | volume distribution ([4]; in vivo): 0.63 to 1.6 L/kg | onset of action ([4]; intravenous): few seconds to two minutes | time of peak effect post administration ([4]; intravenous): six to ten minutes | bioavailability ([4]; oral delivery, high hepatic elimination): 16% | plasma level ([4]; oral dose of 200-600 mg): 143 to 439 ng/mL | iWRT, Δ parameter 20 min aft spray ([5]; N = 20, 0.4 or 1.6 mg): 4.2 ± 0.8 | iWRT, Δ parameter 60 min aft spray ([5]; N = 20, 0.4 or 1.6 mg): 5.4 ± 1.1 | iWRT, % difference Flum vs. P [5, 11]: 92% | iWRT, Δ parameter 20 min aft spray [5, 11]: 5.5 ± 0.9 | iWRT, Δ parameter 60 min aft spray [5, 11]: 6.1 ± 1.2 | Diastolic BP, Δ parameter 20 min aft spray ([6]; N = 20, 0.4 or 1.6 mg): −0.5 ± 1.5 | Diastolic BP, Δ parameter 60 min aft spray ([6]; N = 20, 0.4 or 1.6 mg): −2.3 ± 1.2 | Systolic BP, Δ parameter 20 min aft spray ([6]; N = 20, 0.4 or 1.6 mg): −5.5 ± 2.3 | Systolic BP, Δ parameter 60 min aft spray ([6]; N = 20, 0.4 or 1.6 mg): −6.1 ± 2.7 | Pulse, Δ parameter 20 min aft spray [6, 12]: −2.9 ± 1.3 | Pulse, Δ parameter 60 min aft spray [6, 12]: −3.4 ± 1.6 | complaints of unusual sensation, pain, nausea, abdominal pain or other side effect ([6]; both doses of flumazenil, n=20): None of the participants complained | Diastolic BP, % difference Flum vs. P [6, 11]: 70% | Diastolic BP, Δ parameter 20 min aft spray [6, 11]: −2.0 ± 1.9 | Diastolic BP, Δ parameter 60 min aft spray [6, 11]: −2.6 ± 1.8 | Pulse, % difference Flum vs. P [6, 11]: 8% | Pulse, Δ parameter 60 min aft spray [6, 11]: −1.2 ± 2.7 | Systolic BP, % difference Flum vs. P [6, 11]: 59% | Systolic BP, Δ parameter 20 min aft spray [6, 11]: −4.7 ± 3.5 | Systolic BP, Δ parameter 60 min aft spray [6, 11]: −1.7 ± 4.2 | Pulse, Δ parameter 20 min aft spray ([6]; high dose FLUMUP 1.6 mg, 10 participants, doubled hypnotic dose): −0.4 ± 1.9 | vital signs (pulse, respiration), temperature and blood pressure ([6]; sublingual 0.4 mg and 1.6 mg, n=20): within normal values | physical, neurological, mouth and buccal, cardiac and lung examination, ECG ([6]; sublingual 0.4 mg and 1.6 mg, with respect to placebo, n=20): not adversely affected | DSST, Δ parameter 20 min aft spray ([7]; N = 20, 0.4 or 1.6 mg): 17.7 ± 2.3 | DSST, Δ parameter 60 min aft spray ([7]; N = 20, 0.4 or 1.6 mg): 22.4 ± 3.0 | DSST, % difference Flum vs. P [7, 11]: 92% | DSST, Δ parameter 20 min aft spray [7, 11]: 23.2 ± 3.4 | DSST, Δ parameter 60 min aft spray [7, 11]: 30.4 ± 3.6 | POMS- fatigue, Δ parameter 20 min aft spray ([8]; N = 20, 0.4 or 1.6 mg): −3.7 ± 0.9 | POMS- fatigue, Δ parameter 60 min aft spray ([8]; N = 20, 0.4 or 1.6 mg): −5.5 ± 1.0 | POMS-Alertness, Δ parameter 20 min aft spray ([8]; N = 20, 0.4 or 1.6 mg): 3.5 ± 0.9 | POMS-Alertness, Δ parameter 60 min aft spray ([8]; N = 20, 0.4 or 1.6 mg): 5.3 ± 1.2 | POMS- (first POMS line, r13), % difference Flum vs. P [8, 11]: 72% | POMS- (first POMS line, r13), Δ parameter 20 min aft spray [8, 11]: −5.8 ± 1.6 | POMS- (first POMS line, r13), Δ parameter 60 min aft spray [8, 11]: −8.2 ± 1.6 | POMS- (second POMS line, r14), % difference Flum vs. P [8, 11]: 93% | POMS- (second POMS line, r14), Δ parameter 20 min aft spray [8, 11]: 4.3 ± 1.5 | POMS- (second POMS line, r14), Δ parameter 60 min aft spray [8, 11]: 7.2 ± 2.0 | difference between flumazenil and placebo, low dose ([9]; first 10 subjects, flumazenil 0.4 mg, brotizolam 0.25 mg or zolpidem 10 mg): no significant differences; also recorded: could not be better reversed | response: differences between flumazenil and placebo ([9]; last 10 participants, flumazenil 1.6 mg, doubled hypnotic dose): over 30% | duration of effect following administration ([9]; sublingual spray): at least 60 min | start of effect following administration ([9]; sublingual spray): ≤ 20 min | Effectiveness, Δ parameter 20 min aft spray ([10]; N = 20, 0.4 or 1.6 mg): 2.9 ± 0.6 | Effectiveness, Δ parameter 60 min aft spray ([10]; N = 20, 0.4 or 1.6 mg): 4.5 ± 0.6 | Focus Ability, Δ parameter 20 min aft spray ([10]; N = 20, 0.4 or 1.6 mg): 2.7 ± 0.5 | Focus Ability, Δ parameter 60 min aft spray ([10]; N = 20, 0.4 or 1.6 mg): 4.3 ± 0.6 | Vigilance, Δ parameter 20 min aft spray ([10]; N = 20, 0.4 or 1.6 mg): 3.0 ± 0.6 | Vigilance, Δ parameter 60 min aft spray ([10]; N = 20, 0.4 or 1.6 mg): 4.7 ± 0.6 | Effectivenes, % difference Flum vs. P [10, 11]: 61% | Effectivenes, Δ parameter 20 min aft spray [10, 11]: 3.8 ± 0.7 | Effectivenes, Δ parameter 60 min aft spray [10, 11]: 5.5 ± 0.7 | Focus Ability, % difference Flum vs. P [10, 11]: 59% | Focus Ability, Δ parameter 20 min aft spray [10, 11]: 3.7 ± 0.7 | Focus Ability, Δ parameter 60 min aft spray [10, 11]: 5.8 ± 0.8 | Vigilance, % difference Flum vs. P [10, 11]: 69% | Vigilance, Δ parameter 20 min aft spray [10, 11]: 3.6 ± 0.8 | Vigilance, Δ parameter 60 min aft spray [10, 11]: 5.8 ± 0.8
